Key:
serum cytokines = test: Cytokine concentrations in mouse serum after administering Listeria, poly(I:C), or CpG (Table 7); format: in vivo
Description: Cytokine levels were measured in serum, where the serum was from blood harvested from mice at various times after administering Listeria or a toll-like receptor (TLR) agonist. The treatment groups were (1) Salt water (HBSS) treatment only (0.2 ml); (2) L. monocytogenes ΔactAΔinlB (1×10^7 bacteria); (3) L. monocytogenes Δhly (deleted in the gene encoding listeriolysin) (3×10^8 bacteria); (4) L. monocytogenes killed but metabolically active (KBMA) (3×10^8 bacteria) (see, e.g. Brockstedt, et al. (2005) Nat. Medicine 11:853-860); (5) heat killed L. monocytogenes ΔactAΔinlB (3×10^8 bacteria); (6) poly(I:C) (0.1 mg); or (7) CpG (0.1 mg). Peripheral blood was withdrawn at various times, and assessed for cytokine concentration (Mouse Cytokine/Chemokine LINCOplex® Kit Catalog # MCYTO-70K; Linco, St. Charles, Mo.; or BD® Cytometric Bead Array, San Jose, Calif.). CpG was CpG ODN 1826, purchased through Invivogen. Cytokine levels were measured on samples withdrawn at 2, 4, 8, 12, and 24 hours after administration of bacteria or TLR agonist.
The cytokines measured included granulocyte-colony stimulating factor (G-CSF); interferon-gamma (IFN-gamma); interleukin-1alpha (IL-1alpha); interleukin-6 (IL-6); interleukin-10 (IL-10); interleukin-12p70 (IL-12p70); interleukin-13 (IL-13); IP-10; KC (mouse ortholog of IL-8); MCP-1; MIP-1α; and TNF.

CT26 tumor cells [1] = test: Survival of mice with CT26 hepatic tumors (hemispleen injection model) after attenuated Listeria, with or without CTX; format: in vivo, BALB/c mice; settings: FIG. 1D
Description: Hemispleen injections were as follows. BALB/c mice were anaesthetized and the spleen exposed. The spleen was divided into two hemispleens, leaving the vascular pedicles intact. Using a 27 gauge needle, about 0.1 million viable CT26 cells in 0.4 ml HBSS buffer were injected into the spleen, thus allowing cells to flow to the liver. The vascular pedicle draining the cancer-contaminated hemispleen was ligated with a clip, and the CT26-contaminated hemispleen was excised, leaving a functional hemispleen free of tumor cells.
Hepatic tumors were induced in mice as follows. CT26 tumor cells were administered to all mice on day zero (t=0 days) to initiate hepatic tumor formation.
The following concerns the number of doses of Listeria given to the mice. “1×” means that the indicated Listeria strains were administered only at t=3 days post tumor implant (only one dose). “3×” means that the indicated Listeria strains were administered at t=3 days, 6 days, and 9 days. “5×” means that the indicated Listeria strains were administered at t=3 days, 6 days, 9 days, 12 days, and 15 days. The number of administered Listeria ΔactA cells was about 1×10^7 colony forming units (CFU) while the number of Listeria ΔactAΔinlB given was about 2×10^7 CFU (FIG. 1A). […]

CT26 tumor cells [2] = test: Long-term adaptive immunity: subcutaneous CT26 re-challenge, Elispot, tumor volume (FIGS. 15, 16); format: in vivo, mice
Description: Mice were initially inoculated (t=0 days) with CT26 tumor cells by way of the hemispleen model, and then treated with:
(1) No treatment with any therapeutic agent (“naive mice”);
(2) Listeria ΔactAΔinlB (3 cycles of Listeria ΔactAΔinlB beginning at t=3 days after inoculation with the CT26 tumor cells. Administration of Listeria was once weekly for three weeks. The Listeria ΔactAΔinlB had not been engineered to express any tumor antigen;
(3) GM-CSF vaccine with Listeria ΔactAΔinlB (1 injection of Listeria ΔactAΔinlB at t=6 days). Administration of the GM-CSF vaccine was started three days after injecting the tumor cells in the hemispleen, that is, on days 3, 6, and 10; or
At t=100 days (shortly before the re-challenge) and at t=107 days (post re-challenge), surviving mice in each group were assessed for long-term immunity (Elispot assays) to the immunodominant antigen of the CT26 cells (AH1 antigen). The first Elispot assay (pre re-challenge) served as a baseline assay for use in assessing adaptive immune response. The second Elispot assay (107 days; post re-challenge) was used to assess adaptive immune response. At t=102 days, all mice were inoculated with CT26 tumor cells by way of a subcutaneous re-challenge. […]
Tumor volume was assessed in the days following the CT26 tumor cell re-challenge (FIG. 16). […] The dimensions of these tumors were measured topically.

Poly (I:C)
IFN-gamma concentration in mouse serum (serum cytokines; 4-8 h (plateau)): (25-30 pg/ml)
G-CSF concentration in mouse serum (serum cytokines; 8-12 h (peak)): (6,000 pg/ml),
IL-1alpha concentration in mouse serum (serum cytokines; 8-12 h (plateau)): (170-300 pg/ml)
G-CSF concentration in mouse serum (serum cytokines; 2 h): to 1200 pg/ml
IFN-gamma concentration in mouse serum (serum cytokines; 2 h): to 15 pg/ml
IL-6 concentration in mouse serum (serum cytokines; 2 h): (7500 pg/ml)
IL-12p70 concentration in mouse serum (serum cytokines; 2 h): 300 at 2 h pg/ml
IP-10 concentration in mouse serum (serum cytokines; 2 h): to 1400 pg/ml
KC concentration in mouse serum (serum cytokines; 2 h): to 900 pg/ml
MCP-1 concentration in mouse serum (serum cytokines; 2 h): to 29,000 pg/ml
MIP-1a concentration in mouse serum (serum cytokines; 2 h): to 1800 pg/ml
TNF concentration in mouse serum (serum cytokines; 2 h): to 1500 pg/ml
IL-13 concentration in mouse serum (serum cytokines; 2 h-24 h): Basal
IL-6 concentration in mouse serum (serum cytokines; 4 h): (5000 pg/ml
IP-10 concentration in mouse serum (serum cytokines; 4 h (peak)): 4 h (2100 pg/ml),
IL-10 concentration in mouse serum (serum cytokines; 4 h, 12 h, 24 h): 8 h. Basal
IL-13 concentration in mouse serum, sporadic spikes in some mice (serum cytokines; 4 h, 12 h, 24 h): about 200 pg/ml)
KC concentration in mouse serum (serum cytokines; 4 h-24 h): near basal
MCP-1 concentration in mouse serum (serum cytokines; 8 h): (10,000 pg/ml
IL-6 concentration in mouse serum (serum cytokines; 12 h): near basal
MCP-1 concentration in mouse serum (serum cytokines; 12 h and 24 h): (1000 pg/ml)
IP-10 concentration in mouse serum (serum cytokines; 24 h): drop (800 pg/ml
IL-10 concentration in mouse serum (serum cytokines; sporadic spikes found at 2 h and at 8 h): of 14-80 pg/ml

O=P1(N(CCCl)CCCl)NCCCO1 (stereo not drawn) [CTX, cyclophosphamide]
survival (figure legend) (CT26 tumor cells [1]; CTX at t=4 days, Listeria from day 5, 6 or 7): some increase in survival
survival (CT26 tumor cells [1]; CTX only, 50 mg/kg i.p. day 4, t=50 days): about 60%
Elispot response to AH1 after CT26 re-challenge (CT26 tumor cells [2]; FIG. 15, t=107 days): moderate
mice tumor free following the re-challenge (CT26 tumor cells [2]; subcutaneous re-challenge with 2×10^5 CT26 cells at t=102 days): about 50%

Source: patent US20070190029A1, “Listeria-induced immunorecruitment and activation, and methods of use thereof” (Cerus Corporation, priority 2005, published 2007)
